Laboratory results reported in patent US5374645A (Ciba-Geigy Corporation, priority 1993, dated 1994).
Like-named read-outs stand apart in the source and are kept apart here.

Legend:
Rabbits = details: rabbit, in vivo
[1] = not given; remark: listed apart in the source

Row | SMILES | classification as primary irritant or corrosive by dermal application (Rabbits) | Terbutaline Flux (pH 3.8) [mcg/cm^2 /hr] | relative flux (flux in water case as unity) (pH 3.8) | Terbutaline Flux (pH 4.4) [mcg/cm^2 /hr] | relative flux (flux in water case as unity) (pH 4.4) | Terbutaline Flux (pH 4.6) [mcg/cm^2 /hr] | relative flux (flux in water case as unity) (pH 4.6) | Terbutaline Flux (pH 4.9) [mcg/cm^2 /hr] | relative flux (flux in water case as unity) (pH 4.9) | Terbutaline Flux (pH 5) [mcg/cm^2 /hr] | relative flux (flux in water case as unity) (pH 5) | Terbutaline Flux ([1]; pH 3.8) [mcg/cm^2 /hr] | relative flux (flux in water case as unity) ([1]; pH 3.8) | Terbutaline Flux ([1]; pH 4.2) [mcg/cm^2 /hr] | relative flux (flux in water case as unity) ([1]; pH 4.2)
1 | CC(C)O [Isopropanol, isopropanol] | neither pure isopropanol nor aqueous isopropanol are classified as primary irritants or as corrosives |  |  |  |  |  |  |  |  |  |  |  |  |  | 
2 | CC(C)(C)NCC(O)c1cc(O)cc(O)c1 (stereo not drawn) [Terbutaline, terbutaline] |  | 0.1 | 1 | 16.3 | 163 | 12.8 | 128 | 16.1 | 161 | 5.3 | 53 | 0.1 | 1 | 4.1 | 40
